# Assay results taken from patent publication US11957699B2, “Composition comprising punicalagin for inhibiting PAR2 activity” (INDUSTRY-ACADEMIC COOPERATION FOUNDATION, YONSEI UNIVERSITY, priority 2018, dated 2024).
# Assays:
# [1] = tested on: C57BL6N mice with colitis induced by DSS; experiment: Colitis induced by dextran sodium sulfate (DSS) in mice; assay type: in vivo
# Method: In 7-week-old C57BL6N mice, it was confirmed whether punicalagin has an effect of alleviating symptoms of colitis induced by dextran sodium sulfate (DSS).
# Specifically, while dextran sodium sulfate (DSS), which is a colitis-causing substance, was diluted in water at 2.5% and was fed to the mice for 9 days, 1 mg/kg (n=4), 3 mg/kg (n=4), or 10 mg/kg (n=5) punicalagin was dissolved in physiological saline and intraperitoneally injected once every 48 hours, and the mice were weighed once a day. As control groups, a group which was fed only with 2.5% DSS (n=4), a group which was not fed with DSS and was not injected with punicalagin (n=3), and a group which was not fed with DSS and was injected with punicalagin at 10 mg/kg (n=3) were established, and weight changes, tissue damage, proinflammatory cytokine concentrations, and the like were measured.
# PAR2 [2] = biological target: T1, PAR2 (Homo sapiens, UniProt P55085); experiment: Cytokine secretion by PAR2-AP in primary cultured human conjunctival epithelial cells (ELISA); assay type: cell-based; design: endogenous in cells; details: 10 μM, 100 μM PAR2-AP, 24 hours
# T1 sequence (P55085 26-397): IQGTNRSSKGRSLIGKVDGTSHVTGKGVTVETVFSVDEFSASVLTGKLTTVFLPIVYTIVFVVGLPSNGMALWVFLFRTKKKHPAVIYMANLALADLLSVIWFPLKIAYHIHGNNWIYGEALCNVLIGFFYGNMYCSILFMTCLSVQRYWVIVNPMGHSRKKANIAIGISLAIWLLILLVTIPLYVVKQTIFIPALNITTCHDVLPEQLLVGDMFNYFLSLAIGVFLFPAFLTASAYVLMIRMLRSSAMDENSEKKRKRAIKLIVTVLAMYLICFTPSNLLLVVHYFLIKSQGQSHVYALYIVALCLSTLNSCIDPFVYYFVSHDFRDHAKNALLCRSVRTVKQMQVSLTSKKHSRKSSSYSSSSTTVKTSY
# Method: In order to determine whether punicalagin inhibits cytokine secretion by PAR2 receptor activity, human conjunctival epithelial cells, which were primary cultured and differentiated in a transwell, were treated with 100 μM PAR2-AP or 10 μM punicalagin for 24 hours, and then, by collecting the culture medium from the apical membrane, cytokine concentrations were measured by the enzyme-linked immunosorbent assay.
# [3] = rats, 6% punicalagin diet for 37 days; cited from earlier work
# PAR2 [4] = biological target: T1, PAR2; experiment: Intracellular calcium increase by trypsin (PAR2 receptor activation) in HaCaT keratinocytes; assay type: cell-based; design: endogenous in cells; host or cells: HaCaT keratinocytes
# Method: After keratinocytes (HaCaT) were cultured for 48 hours in a 96-well micro plate with the DMEM culture medium, the culture medium was removed, and then, 100 μL of the Flou4-NW dye mixture was added. While blocking the light, it was stabilized for 1 hour such that a calcium ion dye (Ca^2+ dye) was loaded into the cells. 100 μM punicalagin was treated, and the concentration change of intracellular calcium ions was measured for 5 minutes (panel A of FIG. 17). Next, punicalin (0, 1, 3, 10, 20, 30, 100, and 300 μM) by concentration (panel B of FIG. 17) or punicalagin (0, 1, 3, 5, 10, 20, 30, and 100 μM) by concentration (panel C of FIG. 17) was treated for 10 minutes, and then, each well was treated with 0.1 μM trypsin to measure the concentration change of intracellular calcium ions according to PAR2 receptor activation.
# PAR2 [5] = biological target: T1, PAR2; experiment: Cellular signal changes and inflammatory cytokine secretion by PAR2 receptor activity in human glomerular podocytes; assay type: cell-based; design: endogenous in cells
# Method: The effects of punicalagin on cellular signal changes and inflammatory cytokine secretion by PAR2 receptor activity in human glomerular podocytes were evaluated.
# PAR2 [6] = biological target: T1, PAR2; experiment: Specificity: intracellular calcium increase by trypsin, PAR1-AP, thrombin and ATP in HT-29 cells; assay type: cell-based; design: endogenous in cells; host or cells: HT-29 colon cancer cells
# Method: After colon cancer cells (HT-29) were cultured for 48 hours in a 96-well micro plate with the RPMI1640 culture medium, the culture medium was removed, and then, 100 μL of the Flou4-NW dye mixture was added. While blocking the light, it was stabilized for 1 hour such that a calcium ion dye (Ca^2+ dye) was loaded into the cells. Next, punicalagin was pretreated by concentration (0, 0.3, 1, 3, 10, 30, and 100 μM) for 10 minutes, and by treating 100 nM trypsin, it was measured for about 70 seconds at 1-second intervals to determine whether the concentration changes of intracellular calcium ions by PAR2 activation were an inhibitory effect by punicalagin (panel A of FIG. 2). In the same manner as the above, after punicalagin was pretreated by concentration (0, 1, 3, 10, 30, 100, and 300 μM), by treating 100 μM PAR1-AP (panel B of FIG. 2), 10 unit/mL thrombin (panel C of FIG. 2), and 100 μM ATP (panel D of FIG. 2), the concentration changes in intracellular calcium ions were measured for 70 seconds at 1-second intervals in each case.
# In addition, it was compared how much it inhibited an increase in the concentration of intracellular calcium ions by trypsin, PAR1-AP, PAR2-AP, thrombin, and ATP depending on the concentration of punicalagin.
# [7] = 1, 3 or 10 mg/kg intraperitoneally
smiles,measurement,setting,value
"O=CC1OC(=O)c2cc(O)c(O)c(O)c2-c2c(cc(O)c(O)c2O)C(=O)OC1C1OC(=O)c2cc(O)c(O)c(O)c2-c2c(O)c(O)c3oc(=O)c4c(c(O)c(O)c5oc(=O)c2c3c54)-c2c(cc(O)c(O)c2O)C(=O)OCC1O (stereo not drawn) [punicalagin, 1,2,3,11,12,13-hexahydroxy-5,10-dioxo-8-[3,4,5,11,17,18,19,22,23,34,35-undecahydroxy-8,14,26,31-tetraoxo-9,13,25,32-tetraoxaheptacyclo[25.8.0.0^2,7.0^15,20.0^21,30.0^24,29.0^28,33]pentatnaconta-1(35),2,4,6,15,17,19,21,23,27,29,33-dodecaen-10-yl]-5,7,8,10-tetrahydrodibenzo[f,h][1,4]dioxecin-7-carbaldehyde]",colon tissue damage caused by DSS,[1]; [7],inhibited
same,concentration of proinflammatory cytokines increased by DSS,[1]; [7],significantly reduced
same,length of the colon reduced by DSS,[1]; [7],recovered
same,weight loss by DSS,"[1]; 1, 3 or 10 mg/kg intraperitoneally once every 48 hours, 2.5% DSS 9 days",inhibited weight loss by DSS in a concentration-dependent manner
same,inhibition of GMCSF induced by PAR2-AP,PAR2 [2],66.8%
same,inhibition of interleukin-6 (IL-6) induced by PAR2-AP,PAR2 [2],59.5%
same,inhibition of interleukin-8 (IL-8) induced by PAR2-AP,PAR2 [2],61.6%
same,toxicity,[3],no toxicity
same,effect on the concentration of intracellular calcium ions in keratinocytes (without trypsin),"PAR2 [4]; 100 μM, 5 minutes",no effect
same,inhibition of PAR2 receptor activity by trypsin,"PAR2 [4]; HaCaT, 0.1 μM trypsin, 10 minutes pretreatment",inhibited PAR2 receptor activity by trypsin in a concentration-dependent manner
same,IC50,"PAR2 [4]; HaCaT, 0.1 μM trypsin, read-out: IC50, inhibition of the PAR2 receptor (calcium increase by trypsin)",5.24 µM
same,strength of PAR2 receptor inhibition compared to punicalin,"PAR2 [4]; HaCaT, trypsin",≥ 3.7 times
same,expression amounts of VCAM-1 and ICAM-1 increased by PAR2 receptor activity,PAR2 [5],significantly reduced
same,"expressions of inflammatory cytokines (IL-6, IFN-γ, TNF-α, and IL-8)",PAR2 [5]; concentration-dependent,significantly reduced
same,phosphorylation of ERK 1/2 according to PAR2 receptor activity by PAR2-AP,PAR2 [5]; concentration-dependent,inhibited
same,phosphorylation of NF-κB P65 according to PAR2 receptor activity,PAR2 [5]; concentration-dependent,inhibited
same,inhibition of increase in concentration of intracellular calcium ions,"PAR2 [6]; 100 nM trypsin, 100 μM PAR1-AP, 10 unit/mL thrombin or 100 μM ATP, increasing punicalagin concentration",effect of inhibiting an increase in the concentration of calcium ions was also improved
same,"selectivity for inhibition of PAR2 activity compared to ATP, thrombin, and PAR1-AP",PAR2 [6]; calcium increase,≥ 10 times
